Active and inactive are the calls of the source. The calls are words filed in the database; no cut-off is given here.

One test concerns the target T1, Caspase-1 (Homo sapiens, UniProt P29466).
T1 sequence (P29466 whole entry): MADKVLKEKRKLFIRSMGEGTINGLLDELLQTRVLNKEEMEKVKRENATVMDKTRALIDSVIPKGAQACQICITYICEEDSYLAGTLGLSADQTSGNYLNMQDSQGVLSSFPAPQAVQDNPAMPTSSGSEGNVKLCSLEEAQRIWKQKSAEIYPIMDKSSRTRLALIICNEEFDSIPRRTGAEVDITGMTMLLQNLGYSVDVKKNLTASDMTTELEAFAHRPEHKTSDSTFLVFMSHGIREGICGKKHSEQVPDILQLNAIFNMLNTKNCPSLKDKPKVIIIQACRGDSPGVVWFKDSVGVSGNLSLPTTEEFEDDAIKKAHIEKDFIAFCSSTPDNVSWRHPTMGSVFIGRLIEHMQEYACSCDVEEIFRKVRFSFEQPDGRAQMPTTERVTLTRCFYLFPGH
Nature of the test: (§1) Inhibition of caspase 1.

A further test addresses Stromelysin-1 (Homo sapiens, UniProt P08254). The experiment in a line: Inhibition of MMP3.
The target of a further test is T2, Caspase-1 (Homo sapiens) (UniProt P29466).
T2 sequence (whole entry): T1 sequence (P29466 whole entry)
The test is described as §1.

As for `CC(C)C[C@H]1C[C@H]([C@@H](O)CC(=O)Cc2ccccc2)C(=O)N1` [BERKELEYAMIDE A], the concentration for half-maximal inhibition (IC50) against Caspase-1 and against Stromelysin-1 was 330 nM throughout.
For the compound `CC(=O)OC(c1ccccc1)c1cc(=O)c(C(=O)NC(=O)CC(C)C)co1` (stereo not drawn), the result at Caspase-1 (Homo sapiens) and on Stromelysin-1 was Active.
Turning to `CC(=O)OC(c1ccccc1)c1cc(=O)c(C(=O)NC(=O)CC(C)C)cn1CCO` (stereo not drawn), the result at Caspase-1 (Homo sapiens) and on Stromelysin-1 was Active.
`CC(C)CC1(O)NC(=O)C2(OC(Cc3ccccc3)=CC2=O)C1O` (stereo not drawn) [BERKELEYAMIDE D]: the IC50 on Caspase-1 and at Stromelysin-1 was 610 nM in each case.

The record behind these values is ChEMBL document CHEMBL1149876, “The berkeleyamides, amides from the acid lake fungus Penicillum rubrum” (J Nat Prod, 2008).
